According to PMC11019538, “Biophysics-Guided Lead Discovery of HBV Capsid Assembly Modifiers” (ACS Infectious Diseases, 2024):

tested on: HBV DNA replication in HepAD38 cells; assay: HBV DNA replication inhibition assay in HepAD38 cells (7 days, PCR of supernatant DNA); format: cell-based, hepatitis B virus; settings: HepAD38 cells, 10 µM, first round of selected compounds
Method: HepAD38 cells were seeded at 50,000 cells/well in collagen-coated 96-well plates. […] The experiment lasted 7 days. On day 7, total DNA was purified from the supernatant using a commercially available kit (DNeasy 96 Blood & Tissue kit, Qiagen). The HBV DNA was amplified in a polymerase chain reaction assay using LightCycler 480 II (Roche), as previously described.[63] All samples were tested in duplicate.

| Structure (SMILES) | HBV DNA inhibition (%) at 10 µM [%] |
| --- | --- |
| O=C(CCc1ccccc1)Nc1cccnc1 [GT-15] | < 1 |
| NCc1ccc(F)c(COC2CCCC2)c1 [GT-22] | < 1 |

tested on: African green monkey kidney (Vero) cells; assay: MTT cytotoxicity, Vero cells; format: cell-based; settings: Vero cells
Method: (§1) Human peripheral blood mononuclear (PBM), T lymphoblast CEM-CCRF (herein referred to as CEM cells), African green monkey kidney (Vero), or human liver carcinoma (HepG2) cells were tested via MTT assay using the CellTiter 96 Non-Radioactive Cell Proliferation (Promega) kit as previously described.[63]

| Structure (SMILES) | CC50 [µM] |
| --- | --- |
| O=C(CCc1ccccc1)Nc1cccnc1 [GT-15] | > 100 |
| NCc1ccc(F)c(COC2CCCC2)c1 [GT-22] | 88.6 |

tested on: T lymphoblast CEM-CCRF (CEM) cells; assay: MTT cytotoxicity, CEM cells; format: cell-based, human; settings: not given
Method: as §1

| Structure (SMILES) | CC50 [µM] |
| --- | --- |
| O=C(CCc1ccccc1)Nc1cccnc1 [GT-15] | > 100 |
| NCc1ccc(F)c(COC2CCCC2)c1 [GT-22] | 36.3 |

tested on: human liver carcinoma (HepG2) cells; assay: MTT cytotoxicity, HepG2 cells; format: cell-based; settings: HepG2 cells
Method: as §1

| Structure (SMILES) | CC50 [µM] |
| --- | --- |
| O=C(CCc1ccccc1)Nc1cccnc1 [GT-15] | > 100 |
| NCc1ccc(F)c(COC2CCCC2)c1 [GT-22] | > 100 |

tested on: human peripheral blood mononuclear (PBM) cells; assay: MTT cytotoxicity, PBM cells; format: cell-based; settings: not given
Method: as §1

| Structure (SMILES) | CC50 [µM] |
| --- | --- |
| O=C(CCc1ccccc1)Nc1cccnc1 [GT-15] | > 100 |
| NCc1ccc(F)c(COC2CCCC2)c1 [GT-22] | > 100 |
